Source: EP3057949B1, “SECONDARY ALCOHOL QUINOLINYL MODULATORS OF ROR GAMMA T” (Janssen Pharmaceutica NV, priority 2013, dated 2015)
pIC50, pKd: −log10 of the molar value.

Key:
[1] = tested on: IL-17 production by CD4 T cells; assay: Human Th17 Assay (IL-17 production by CD4 T cells); assay type: cell-based; conditions: IL-17 in supernatant after 3 days, Th17 differentiation conditions
Source text: The human Thl7 assay tests the effect of RORyt modulatory compounds on IL-17 production by CD4 T cells under conditions which favor Th17 differentiation.
Total CD4^+ T cells were isolated from the peripheral blood mononuclear cells (PBMC) of healthy donors using a CD4^+ T cell isolation kit II, following the manufacturer's instructions (Miltenyi Biotec). Cells were resuspended in a medium of RPMI-1640 supplemented with 10% fetal bovine serum, penicillin, streptomycin, […], and β-mercaptoethanol and were added to 96-well plates at 1.5x10^5 per 100 µL per well. 50 µL of compound at titrated concentrations in DMSO were added into each well at final DMSO concentration at 0.2%. Cells were incubated for 1 hour, then 50 µL of Th17 cell differentiation medium was added to each well. The final concentrations of antibodies and cytokines (R&D Systems) in differentiation medium were: 3x10^6/mL anti-CD3/CD28 beads (prepared using human T cell activation/expansion kit, Miltenyi Biotec), 10 µg/mL anti-IL4, 10 µg/mL anti-IFNγ, 10 ng/mL IL1β, 10 ng/mL IL23, 50 ng/mL IL6, 3 ng/mL TGFβ and 20 U/mL IL2. Cells were cultured at 37 °C and 5% CO2 for 3 days. Supernatants were collected and the accumulated IL-17 in culture was measured by using MULTI-SPOT® Cytokine Plate following manufacture's instruction (Meso Scale Discovery). The plate was read using Sector Imager 6000, and IL-17 concentration was extrapolated from the standard curve. The IC50s were determined by GraphPad.

human RORγt LBD = target: T1, human RORγt LBD (Homo sapiens, UniProt P51449); assay: RORγt (LBD) Reporter Assay (GAL4 luciferase, HEK293T cells); assay type: cell-based; conditions: for RORγt (LBD) Reporter Assay, % inhibition @ 6 µM / inhibition at 6 µM: 6 µM compound; for pIC50: compounds for 24 hours; for inhibition at 6 µM: HEK-293T
T1 construct: expressed in transfected cells; host or cells: HEK293T
T1 sequence (P51449 258-518): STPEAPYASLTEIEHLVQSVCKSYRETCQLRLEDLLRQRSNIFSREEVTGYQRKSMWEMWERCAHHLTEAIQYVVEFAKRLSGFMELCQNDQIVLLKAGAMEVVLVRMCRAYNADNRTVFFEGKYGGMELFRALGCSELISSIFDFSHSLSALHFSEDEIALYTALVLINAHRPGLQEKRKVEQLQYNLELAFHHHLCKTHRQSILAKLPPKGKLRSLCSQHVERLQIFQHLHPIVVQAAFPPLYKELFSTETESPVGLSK
Experimental: Compounds were assessed for RORgt functional modulation using either the RORgt ligand binding domain (LBD) reporter assay, or the RORgt full-length (FL) reporter assay.
A reporter assay was used to test functional activity of RORγt modulatory compounds on transcriptional activation driven by the RORγt LBD. Cells used in the assay were co-transfected with two constructs. The first construct, pBIND-RORγt LBD, contained the wild type human RORγt LBD fused to the DNA binding domain of the GAL4 protein. The second construct, pGL4.31 (Promega Cat no. C935A), contained multiple GAL4 responsive DNA elements upstream of firefly luciferase. […] The mutant construct was called pBIND-RORγt-AF2.
The pBIND vector contains the GAL4 DNA Binding Domain (GAL4 DBD) and the renilla luciferase gene under control of the SV40 promoter. Renilla luciferase expression serves as a control for transfection efficiency and cell viability.
The reporter assay was performed by transiently transfecting HEK293T cells with 5 µg of pBIND-RORγt LBD or pBIND-RORγt LBD-AF2 and 5 µg pGL4.31 (Promega Cat no. C935A) using Fugene 6 (Invitrogen Cat no. E2691) at a 1:6 ratio of DNA: Fugene 6 in a T-75 flask in which cells were at least 80% confluent. Twenty four hours after bulk transfection, cells were plated into 96-well plates at 50,000 cells/well in phenol-red free DMEM containing 5% Lipid Reduced FCS and Pen/Strep. Six hours after plating, cells were treated with compounds for 24 hours. Media was removed and cells were lysed with 50 µL 1x Glo Lysis Buffer (Promega). Dual Glo Luciferase Reagent (50 µL/well) was then added and firefly luciferase luminescence was read on an Envision after a ten minute incubation. Finally, Stop and Glo reagent (50 µL/well) was added and renilla luciferase luminescence was read on an Envision after a ten minute incubation. To calculate the effect of compounds on RORγt activity, the ratio of firefly to renilla luciferase was determined and plotted against compound concentration. Agonist compounds increase RORγt-driven luciferase expression, and antagonist or inverse agonist compounds decrease luciferase expression.

[2] = target: T2, human RORγt ligand binding domain (RORγt LBD) (Homo sapiens, UniProt P51449); assay: ThermoFluor® Assay (RORγt thermal shift binding); conditions: 0.065 mg/mL RORγt, 60 µM 1,8-ANS, pH 7.0; estimated from concentration response curves
T2 construct: His-tag (N); TurboTEV protease cleavage site (ENLYFQG) (N); made in house; host or cells: E. coli (pHIS1, modified pET vector)
T2 sequence (P51449 258-518): T1 sequence (P51449 258-518)
Experimental: This approach is applicable to a wide variety of systems, and rigorous in theoretical interpretation through quantitation of equilibrium binding constants (KD).
The shift in the melting point described as a ΔTm is proportional to the concentration and affinity of the ligand. The compound potency may be compared as a rank order of either ATm values at a single compound concentration or in terms of KD values, estimated from concentration response curves.
ThermoFluor® experiments were carried out using instruments owned by Janssen Research and Discovery, L.L.C. through its acquisition of 3-Dimensional Pharmaceuticals, Inc. 1,8-ANS (Invitrogen) was used as a fluorescent dye. Protein and compound solutions are dispensed into black 384-well polypropylene PCR microplates (Abgene) and overlayed with silicone oil (1 µL, Fluka, type DC 200) to prevent evaporation.
Bar-coded assay plates are robotically loaded onto a thermostatically controlled PCR-type thermal block and then heated at a typical ramp-rate of 1 °C/minute for all experiments. Fluorescence was measured by continuous illumination with UV light (Hamamatsu LC6) supplied via fiber optic and filtered through a band-pass filter (380-400 nm; >6 OD cutoff). Fluorescence emission of the entire 384-well plate was detected by measuring light intensity using a CCD camera (Sensys, Roper Scientific) filtered to detect 500 ± 25 nm, resulting in simultaneous and independent readings of all 384 wells. Images were collected at each temperature, and the sum of the pixel intensity in a given area of the assay plate was recorded versus temperature. Reference wells contained RORyt without compounds, and the assay conditions were as follows: • 0.065 mg/mL RORγt • 60 µM 1,8-ANS • 100 mM Hepes, pH 7.0 • 10 mM NaCl • 2.5 mM GSH • 0.002% Tween-20
Project compounds were arranged in a pre-dosed mother plate (Greiner Bio-one) wherein compounds are serially diluted in 100% DMSO by 1:2 from a high concentration of 10 mM over 12 columns within a series (column 12 is a reference well containing DMSO, no compound). The compounds were robotically dispensed directly into assay plates (1x = 46 nL) using a Hummingbird capillary liquid handling instrument (Digilab). Following compound dispense, protein and dye in buffer was added to achieve the final assay volume of 3 µL, followed by 1 µL of silicone oil.

Row | Structure (SMILES) | pIC50 [1] | RORγt (LBD) Reporter Assay, % inhibition @ 6 µM (human RORγt LBD) | pIC50 (human RORγt LBD) | pKd [2] | pIC50 ([1]; Homo sapiens, CD4+ T, 72 h) | inhibition at 6 µM (human RORγt LBD)
1 | Cc1ncc(C(O)c2ccc3nc(N4CCC4)c(Cc4ccc(C(F)(F)F)cc4)c(Cl)c3c2)n1C (single isomer, unassigned) [Example 22c, {2-Azetidin-1-yl-4-chloro-3-[4-(trifluoromethyl)benzyl]quinolin-6-yl}(1,2-dimethyl-1H-imidazol-5-yl)methanol] | 8.54 | 96% | ~6.40 | 7.37 | – | –
2 | Cc1ccc(C(O)c2ccc3nc(N4CCC4)c(Cc4ccc(C(F)(F)F)cc4)c(Cl)c3c2)c(C)n1 (single isomer, unassigned) [Example 23b, {2-Azetidin-1-yl-4-chloro-3-[4-(trifluoromethyl)benzyl]quinolin-6-yl}(2,6-dimethylpyridin-3-yl)methanol] | – | – | 6.66 | 6.96 | 6.42 | 98%
3 | COc1nc2ccc(C(O)c3ccc(C)nc3C)cc2c(Cl)c1Cc1ccc(C(F)(F)F)cc1 (single isomer, unassigned) [Example 14b, (4-Chloro-2-methoxy-3-(4-(trifluoromethyl)benzyl)quinolin-6-yl)(2,6-dimethylpyridin-3-yl)methanol] | – | – | 6.92 | 6.89 | 6.77 | 97%
4 | Cc1ncc(C(O)c2ccc3nc(N4CCC4)c(Cc4ccc(-n5cccn5)cc4)c(Cl)c3c2)n1C (single isomer, unassigned) [Example 21c, {2-Azetidin-1-yl-4-chloro-3-[4-(1H-pyrazol-1-yl)benzyl]quinolin-6-yl}(1,2-dimethyl-1H-imidazol-5-yl)methanol] | – | 92% | 6.35 | 6.72 | 5.59 | –
5 | COc1nc2ccc(C(O)c3cnnn3C)cc2c(Cl)c1Cc1ccc(C(F)(F)F)cc1 (single isomer, unassigned) [Example 17c, (4-Chloro-2-methoxy-3-(4-(trifluoromethyl)benzyl)quinolin-6-yl)(1-methyl-1H-1,2,3-triazol-5-yl)methanol] | 6.85 | 97% | 6.68 | 6.89 | – | –
6 | COc1nc2ccc(C(O)c3cnnn3C)cc2c(Cl)c1Cc1ccc(C(F)(F)F)cc1 (single isomer, unassigned) [Example 17b, (4-Chloro-2-methoxy-3-(4-(trifluoromethyl)benzyl)quinolin-6-yl)(1-methyl-1H-1,2,3-triazol-5-yl)methanol] | 6.36 | – | 6.62 | 7.09 | – | 96%
7 | COc1nc2ccc(C(O)c3cncn3C)cc2c(Cl)c1Cc1ccc(C(F)(F)F)cc1 (single isomer, unassigned) [Example 18c, (4-Chloro-2-methoxy-3-(4-(trifluoromethyl)benzyl)quinolin-6-yl)(1-methyl-1H-imidazol-5-yl)methanol] | – | 96% | 6.49 | 6.59 | 6.19 | –
8 | Cc1ccc(C(O)c2ccc3nc(N4CCC4)c(Cc4ccc(C(F)(F)F)cc4)c(Cl)c3c2)c(C)n1 (single isomer, unassigned) [Example 23c, {2-Azetidin-1-yl-4-chloro-3-[4-(trifluoromethyl)benzyl]quinolin-6-yl}(2,6-dimethylpyridin-3-yl)methanol] | 6.32 | 99% | 6.55 | 6.70 | – | –
9 | COc1nc2ccc(C(O)c3cnnn3C)cc2c(Cl)c1Cc1ccc(-n2cccn2)cc1 (single isomer, unassigned) [Example 5b, (3-(4-(1H-Pyrazol-1-yl)benzyl)-4-chloro-2-methoxyquinolin-6-yl)(1-methyl-1H-1,2,3-triazol-5-yl)methanol] | 5.82 | – | – | – | – | –
10 | COc1nc2ccc(C(O)c3cnnn3C)cc2c(Cl)c1Cc1ccc(-n2cccn2)cc1 (single isomer, unassigned) [Example 5c, (3-(4-(1H-Pyrazol-1-yl)benzyl)-4-chloro-2-methoxyquinolin-6-yl)(1-methyl-1H-1,2,3-triazol-5-yl)methanol] | 6.21 | – | – | – | – | –
11 | Cc1ncc(C(O)c2ccc3nc(N4CCC4)c(Cc4ccc(C(F)(F)F)cc4)c(Cl)c3c2)n1C (single isomer, unassigned) [Example 22b, {2-Azetidin-1-yl-4-chloro-3-[4-(trifluoromethyl)benzyl]quinolin-6-yl}(1,2-dimethyl-1H-imidazol-5-yl)methanol] | 8.03 | – | 6.62 | 7.26 | – | 95%
12 | COc1nc2ccc(C(O)c3ccc(C)nc3C)cc2c(Cl)c1Cc1ccc(C(F)(F)F)cc1 (single isomer, unassigned) [Example 14c, (4-Chloro-2-methoxy-3-(4-(trifluoromethyl)benzyl)quinolin-6-yl)(2,6-dimethylpyridin-3-yl)methanol] | 7.00 | 98% | 6.66 | 7.00 | – | –
